Read-outs that look alike come from different tables or passages of the source.
What was measured:
Assay type in all cases: cell-based
OVCAR-3 = assay: SRB cell proliferation assay, OVCAR-3; conditions: Homo sapiens, 18-Cell Line Panel, ovary
Method: (§1) Cells were exposed to the test compounds at various concentrations appropriate to determine an IC50 for 72 hours. Cell proliferation was measured using the SRB assay according to Shekan et al (J Natl Cancer Inst (1990) 82, 1107-112) in order to estimate the IC50 values shown in Table 3. Briefly, cells were plated in 96 well dishes 24 hours prior to compound addition at the densities specified in Table 5.1. The assay was terminated with the addition of cold TCA to a final concentration of 10% after growth medium has been removed and the plates were incubated over night at 4°C. The plates were then washed 5 times with water and 100µl of a Sulforhodamine B solution (4%) was added to each well. The plates were then incubated for 10 minutes at room temperature before removal of unbound dye by washing with 1% acetic acid. The bound dye was solubilised with 10 mM Trizma base and the absorbance read at OD520.
(§2) Table 8.1: 18-Cell Line Panel

MDA-MB-231 = assay: SRB cell proliferation assay, MDA-MB-231; conditions: Homo sapiens, 18-Cell Line Panel, breast
Method: as §1, §2

SK-MEL-5 = assay: SRB cell proliferation assay, SK-MEL-5; conditions: Homo sapiens, 18-Cell Line Panel, melanoma
Method: as §1, §2

IMR-90 = assay: SRB cell proliferation assay, IMR-90; conditions: Homo sapiens
Procedure, shortened: (§3)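 Cells plated 24 h before compound, then exposed 72 h over a concentration range. TCA-fixed, sulforhodamine B-stained, bound dye read at OD520; IC50 derived from % inhibition of proliferation versus DMSO-treated cells.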

ACHN = assay: SRB cell proliferation assay, ACHN; conditions: Homo sapiens, 18-Cell Line Panel, kidney
Method: as §1, §2

HCT 116 = assay: SRB cell proliferation assay, HCT 116; conditions: Homo sapiens
Procedure, shortened: as §3

Plk1 = Plk1 (Homo sapiens, UniProt P53350); assay: Cellular Plk1 kinase activity: nucleophosmin (B23) Ser4 phosphorylation in HCT116 cells (MSD electrochemiluminescence); set-up: host or cells: HCT116; conditions: 100 ng/ml nocodazole, 4 hours after compound addition, read-out: Biochemical IC50 Nucleophosmin assay
Chain of Plk1 (P53350 whole entry, species assumed): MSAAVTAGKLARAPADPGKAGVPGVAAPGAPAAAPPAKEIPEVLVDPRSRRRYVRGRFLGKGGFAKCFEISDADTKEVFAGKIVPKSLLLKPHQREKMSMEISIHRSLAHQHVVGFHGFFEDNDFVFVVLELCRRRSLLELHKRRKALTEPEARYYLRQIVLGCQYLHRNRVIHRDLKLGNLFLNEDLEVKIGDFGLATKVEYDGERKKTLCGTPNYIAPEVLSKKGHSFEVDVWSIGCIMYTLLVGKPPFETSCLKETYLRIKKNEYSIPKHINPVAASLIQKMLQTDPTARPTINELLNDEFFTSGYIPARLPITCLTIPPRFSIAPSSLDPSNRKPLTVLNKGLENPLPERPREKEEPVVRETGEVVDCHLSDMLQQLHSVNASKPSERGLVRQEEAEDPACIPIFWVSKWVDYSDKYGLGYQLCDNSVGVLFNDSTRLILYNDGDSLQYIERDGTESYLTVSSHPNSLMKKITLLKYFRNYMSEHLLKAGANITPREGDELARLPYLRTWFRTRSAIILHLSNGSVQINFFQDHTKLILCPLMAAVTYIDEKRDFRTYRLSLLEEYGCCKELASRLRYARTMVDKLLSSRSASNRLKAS
Procedure, shortened: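 HCT116 cells arrested with 100 ng/ml nocodazole for 20 h, then compound for 4 h before lysis. Nucleophosmin Ser4 phosphorylation quantified by MSD electrochemiluminescence with cross-reactive anti-phospho-Mek1/2 antibody; % inhibition relative to cells without nocodazole, IC50 derived.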

A-431 = assay: SRB cell proliferation assay, A-431; conditions: Homo sapiens, 18-Cell Line Panel, skin
Method: as §1, §2

DU 145 = assay: SRB cell proliferation assay, DU 145; conditions: Homo sapiens, 18-Cell Line Panel, prostate, read-out: IC50 DU145
Method: as §1, §2

SW620 = assay: SRB cell proliferation assay, SW620; conditions: Homo sapiens, SW-620; 18-Cell Line Panel; colon
Method: as §1, §2

NCI-H460 = assay: SRB cell proliferation assay, NCI-H460; conditions: Homo sapiens, 18-Cell Line Panel, NSCLC
Method: as §1, §2

[1] = 18-Cell Line Panel, lung, read-out: IC50 IMR-90
[2] = 72 hours, SRB assay, slow cycling cell line, read-out: CELLULAR IC50 IMR-90
[3] = HCT-116, 18-Cell Line Panel, colon, read-out: IC50 HCT116
[4] = HCT-116, 72 h, 72 hours, SRB assay, read-out: CELLULAR IC50 HCT 116

Row | IC50 (OVCAR-3) [nM] | IC50 (MDA-MB-231) [nM] | IC50 (SK-MEL-5) [nM] | IC50 (ACHN) [nM] | IC50 (HCT 116; [3]) [nM] | IC50 (HCT 116; [4]) [nM] | IC50 (Plk1) [nM] | IC50 (A-431) [nM] | IC50 (SW620) [nM] | IC50 (NCI-H460) [nM] | Structure (SMILES) | IC50 (IMR-90; [1]) [nM] | IC50 (IMR-90; [2]) [nM] | IC50 (DU 145) [nM]
1 | < 1000 | > 1000 | < 1000 | > 1000 | < 1000 | < 1000 | < 100 | < 1000 | < 1000 | < 1000 | CCC1C(=O)N(C)c2cnc(Nc3ccc(C(=O)NC4CCN(C)CC4)cc3OC)nc2N1N(C)C (racemic) [Compound 1, 4-(8-Dimethylamino-7-ethyl-5-methyl-6-oxo-5,6,7,8-tetrahydro-pteridin-2-ylamino)-3-methoxy-N-(1-methyl-piperidin-4-yl)-benzamide] | > 1000 | > 1000 | < 1000
2 | < 1000 | < 1000 | < 1000 | < 1000 | < 1000 | < 1000 | < 100 | < 1000 | < 1000 | < 1000 | CCC1C(=O)N(C)c2cnc(Nc3ccc(C(=O)N[C@H]4CC[C@H](N5CCN(CC6CC6)CC5)CC4)cc3OC)nc2N1N(C)C (relative stereo) [Compound 13, N-[trans-4-(4-Cyclopropylmethyl-piperazin-1-yl)-cyclohexyl]-4-(8-dimethylamino-7-ethyl-5-methyl-6-oxo-5,6,7,8-tetrahydro-pteridin-2-ylamino)-3-methoxy-benzamide] | > 1000 | > 1000 | < 1000

Reference: EP2112152A1, “Dihydropteridinones as Plk Inhibitors” (GPC Biotech AG, priority 2008, dated 2009)
